In patent US8119681B2, “2-[1-phenyl-5-hydroxy or methoxy-4alpha-methyl-hexahydrocyclopenta [ƒ]indazole-5-YL]ethyl phenyl derivatives as glucocorticoid receptor ligands” (Merck Sharp & Dohme Corp., priority 2006, dated 2012) one finds Ki data, which are given here for 19 compounds.

Structures are written as SMILES.

The target of the first test is T1, glucocorticoid receptor (GR) (Homo sapiens, UniProt P04150).
T1 construct: endogenous in cells; host or cells: HeLa (ATCC) cell lysate supernatant
T1 sequence (P04150 1-777): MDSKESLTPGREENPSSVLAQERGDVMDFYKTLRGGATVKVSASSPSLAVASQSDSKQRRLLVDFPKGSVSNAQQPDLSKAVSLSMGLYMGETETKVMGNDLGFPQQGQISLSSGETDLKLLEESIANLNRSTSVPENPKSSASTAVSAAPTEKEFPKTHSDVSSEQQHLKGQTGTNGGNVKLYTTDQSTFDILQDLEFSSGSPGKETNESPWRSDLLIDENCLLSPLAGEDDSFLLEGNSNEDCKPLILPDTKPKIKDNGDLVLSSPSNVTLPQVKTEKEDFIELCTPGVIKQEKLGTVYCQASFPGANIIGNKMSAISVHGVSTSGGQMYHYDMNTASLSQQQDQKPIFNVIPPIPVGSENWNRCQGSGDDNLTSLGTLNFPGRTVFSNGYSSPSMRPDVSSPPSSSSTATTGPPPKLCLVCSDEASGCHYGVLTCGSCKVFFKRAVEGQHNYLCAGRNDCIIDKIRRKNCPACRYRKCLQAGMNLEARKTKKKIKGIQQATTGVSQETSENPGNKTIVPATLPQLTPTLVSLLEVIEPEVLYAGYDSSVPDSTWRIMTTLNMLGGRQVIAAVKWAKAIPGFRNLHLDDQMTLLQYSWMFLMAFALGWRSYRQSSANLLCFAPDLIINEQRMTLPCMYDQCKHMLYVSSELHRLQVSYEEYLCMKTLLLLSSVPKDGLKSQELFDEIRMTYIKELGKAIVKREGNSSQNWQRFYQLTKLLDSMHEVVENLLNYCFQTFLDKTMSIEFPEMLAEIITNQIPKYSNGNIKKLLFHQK
Briefly: Ligand binding assay (GR BIND), 3H-dexamethasone displacement, HeLa cell lysate. The settings on record: Table 1; HeLa cell lysate, 3H-DEX. The protocol:
Binding Buffer: TEGM (10 mM Tris-HCl, 1 mM EDTA, 10% glycerol, 1 mM beta-mercaptoethanol, 10 mM Sodium Molybdate, pH 7.2)
50% HAP Slurry: Calbiochem Hydroxylapatite, Fast Flow, in 10 mM Tris, pH 8.0 and 1 mM EDTA.
Wash Buffer: 40 mM Tris, pH7.5, 100 mM KCl, 1 mM EDTA and 1 mM EGTA.
Dexmethasone-methyl-^3H, (DEX*); (Amersham cat# TRK645)
Dexamethasone (DEX) (Sigma, cat# D1756):
Phenol red-free Trypsin-EDTA is diluted in the same PBS 1:10. The cell layers are rinsed with 1× Trypsin, extra Trypsin is poured out, and the cell layers are incubated at 37° C. for ˜2 min. The flask is tapped and checked for signs of cell detachment. Once the cells begin to slide off the flask, the complete media is added. The cells are counted at this point, then diluted to the appropriate concentration and split into flasks or dishes for further culturing (Usually 1:3 to 1:6 dilution).
Preparation of Hela Cell Lysate
The cell pellet is washed twice with TEGM (10 mM Tris-HCl, 1 mM EDTA, 10% glycerol, 1 mM beta-mercaptoethanol, 10 mM Sodium Molybdate, pH 7.2). After the final wash, the cells are resuspended in TEGM at a concentration of 10^7 cells/mL. The cell suspension is snap frozen in liquid nitrogen or ethanol/dry ice bath and transferred to −80° C. freezer on dry ice. Before setting up the binding assay, the frozen samples are left on ice-water to just thaw (˜1 hr). Then the samples are centrifuged at 12,500 g to 20,000 g for 30 min at 4° C. The supernatant is used to set-up assay right away. If using 50 μL of supernatant, the test compound can be prepared in 50 μL of the TEGM buffer.
Procedure for Multiple Compound Screening
1×TEGM buffer is prepared, and the isotope-containing assay mixture is prepared in the following order: EtOH (2% final concentration in reaction), 3H-DEX (Amersham Biosciences) and 1×TEGM. [e.g. For 100 samples, 200 μL (100×2) of EtOH+4.25 μL of 1:10 ^3H-Dex stock+2300 μL (100×23) 1×TEGM]. The compound is serially diluted, e.g., if starting final conc. is 1 μM, and the compound is in 25 μL of solution, for duplicate samples, 75 μL of 4×1 μM solution is made and 3 μL of 100 μM is added to 72 μL of buffer, and 1:5 serial dilution.
25 μL of ^3H-DEX (6 nM) trace and 25 μL compound solution are first mixed together, followed by addition of 50 μL receptor solution. The reaction is gently mixed, spun briefly at about 200 rpm and incubated at 4° C. overnight. 100 μL of 50% HAP slurry is prepared and added to the incubated reaction which is then vortexed and incubated on ice for 5 to 10 minutes. The reaction mixture is vortexed twice more to resuspend HAP while incubating reaction. The samples in 96-well format are then washed in wash buffer using The FilterMate™ Universal Harvester plate washer (Packard). The washing process transfers HAP pellet containing ligand-bound expressed receptor to Unifilter-96 GF/B filter plate (Packard). The HAP pellet on the filter plate is incubated with 50 μL of MICROSCINT (Packard) scintillant for 30 minutes before being counted on the TopCount microscintillation counter (Packard). IC50s are calculated using DEX as a reference.
Consider `CC(C)NC(=O)c1ccccc1CC[C@]1(O)CCC2=Cc3c(cnn3-c3ccc(F)cc3)C[C@@]21C` [Example 35, 2-{2-[(4αS,5R)-1-(4-fluorophenyl)-5-hydroxy-4α-methyl-1,4,4α,5,6,7-hexahydrocyclopenta[f]indazol-5-yl]ethyl}-N-isopropylbenzamide], for which the Ki worked out at 3.55 nM. That is a single-digit nanomolar value.
Same read-out and setting: the value for `C[C@]12Cc3cnn(-c4ccc(F)cc4)c3C=C1CC[C@@]2(O)CCc1ccccc1C(=O)NCC1CC1` [Example 37, N-(cyclopropylmethyl)-2-{2-[(4αS,5R)-1-(4-fluorophenyl)-5-hydroxy-4α-methyl-1,4,4α,5,6,7-hexahydrocyclopenta[r]indazol-5-yl]ethyl}benzamide] was 0.44 nM; that for `CC(CNC(=O)c1c(F)cccc1CC[C@]1(O)CCC2=Cc3c(cnn3-c3ccc(F)cc3)C[C@@]21C)C(F)(F)F` (stereo partly drawn) [Example 38, 2-fluoro-6-{2-[(4αS,5R)-1-(4-fluorophenyl)-5-hydroxy-4α-methyl-1,4,4α,5,6,7-hexahydrocyclopenta[f]indazol-5-yl]ethyl}-N-(3,3,3-trifluoro-2-methylpropyl)benzamide] was 0.43 nM; that for `C[C@]12Cc3cnn(-c4ccc(F)cc4)c3C=C1CC[C@@]2(O)CCc1ccccc1C(=O)N1CCC1` [Example 40, (4αS,5R)-5-{2-[2-(azetidin-1-ylcarbonyl)phenyl]ethyl}-1-(4-fluorophenyl)-4α-methyl-1,4,4α,5,6,7-hexahydrocyclopenta[f]indazol-5-ol] was 6.14 nM.
`COC(=O)C(C)(C)NC(=O)c1c(F)cccc1CC[C@]1(O)CCC2=Cc3c(cnn3-c3ccc(F)cc3)C[C@@]21C` [Example 41, methyl N-(2-fluoro-6-{2-[(4αS,5R)-1-(4-fluorophenyl)-5-hydroxy-4α-methyl-1,4,4α,5,6,7-hexahydrocyclopenta[f]indazol-5-yl]ethyl}benzoyl)-2-methylalaninate] displayed a Ki of 0.83 nM.
As to `C[C@]12Cc3cnn(-c4ccccc4)c3C=C1CC[C@@]2(O)CCc1ccccc1C(=O)NC1CC1` [Example 42, N-cyclopropyl-2-{2-[(4αS,5R)-5-hydroxy-4α-methyl-1-phenyl-1,4,4α,5,6,7-hexahydrocyclopenta[f]indazol-5-yl]ethyl}benzamide], the affinity, expressed as Ki, was 2.79 nM. Compared with the last compound, the Ki is about 3.4-fold higher.
Compound `C[C@]12Cc3cnn(-c4ccccc4)c3C=C1CC[C@@]2(O)CCc1ccccc1C(N)=O` [Example 43, 2-{2-[(4αS,5R)-5-hydroxy-4α-methyl-1-phenyl-1,4,4α,5,6,7-hexahydrocyclopenta[f]indazol-5-yl]ethyl}benzamide] registered a Ki of 5.16 nM.
For the compound `C=C(C)CNC(=O)c1c(F)cccc1CC[C@]1(O)CCC2=Cc3c(cnn3-c3ccc(F)cc3)C[C@@]21C` [Example 44, 2-fluoro-6-{2-[(4αS,5R)-1-(4-fluorophenyl)-5-hydroxy-4α-methyl-1,4,4α,5,6,7-hexahydrocyclopenta[f]indazol-5-yl]ethyl}-N-(2-methylprop-2-en-1-yl)benzamide], the Ki worked out at 0.6 nM.
Compound `C[C@H](CNC(=O)c1ccccc1CC[C@]1(O)CCC2=Cc3c(cnn3-c3ccc(F)cc3)C[C@@]21C)C(F)(F)F` [Example 45, 2-{2-[(4αS,5R)-1-(4-fluorophenyl)-5-hydroxy-4α-methyl-1,4,4α,5,6,7-hexahydrocyclopenta[f]indazol-5-yl]ethyl}-N-[(2R)-3,3,3-trifluoro-2-methylpropyl]benzamide] returned a Ki of 1.02 nM.
`C[C@]12Cc3cnn(-c4ccc(F)cc4)c3C=C1CC[C@@]2(O)CCc1ccccc1C(=O)N1CCCCC1` [Example 46, (4αS,5R)-1-(4-fluorophenyl)-4α-methyl-5-{2-[2-(piperidin-1-ylcarbonyl)phenyl]ethyl}-1,4,4α,5,6,7-hexahydrocyclopenta[f]indazol-5-ol] gave a Ki of 3.02 nM.
As for `C[C@]12Cc3cnn(-c4ccc(F)cc4)c3C=C1CC[C@@]2(O)CCc1ccccc1C(=O)N1CCCC1` [Example 47, (4αS,5R)-1-(4-fluorophenyl)-4α-methyl-5-{2-[2-(pyrrolidin-1-ylcarbonyl)phenyl]ethyl}-1,4,4α,5,6,7-hexahydrocyclopenta[f]indazol-5-ol], the inhibition constant Ki worked out at 11.5 nM.
With `CC(C)[C@@H](C)NC(=O)c1c(F)cccc1CC[C@]1(O)CCC2=Cc3c(cnn3-c3ccc(F)cc3)C[C@@]21C` [Example 48, N-[(1R)-1,2-dimethylpropyl]-2-fluoro-6-{2-[(4αS,5R)-1-(4-fluorophenyl)-5-hydroxy-4α-methyl-1,4,4α,5,6,7-hexahydrocyclopenta[f]indazol-5-yl]ethyl}benzamide], the Ki came out at 1.2 nM. This Ki lies about 9.6-fold lower than the previous one.
Same read-out and setting: the value for `CCCNC(=O)c1c(F)cccc1CC[C@]1(O)CCC2=Cc3c(cnn3-c3ccc(F)cc3)C[C@@]21C` [Example 49, 2-fluoro-6-{2-[(4αS,5R)-1-(4-fluorophenyl)-5-hydroxy-4α-methyl-1,4,4α,5,6,7-hexahydrocyclopenta[f]indazol-5-yl]ethyl}-N-propylbenzamide] was 0.81 nM; that for `CCNC(=O)c1ccccc1CC[C@]1(O)CCC2=Cc3c(cnn3-c3ccc(F)c(F)c3)C[C@@]21C` [Example 51, 2-{2-[(4αS,5R)-1-(3,4-difluorophenyl)-5-hydroxy-4α-methyl-1,4,4α,5,6,7-hexahydrocyclopenta[f]indazol-5-yl]ethyl}-N-ethylbenzamide] was 7.05 nM.
For the compound `COC(=O)C(C)(C)NC(=O)c1ccccc1CC[C@]1(O)CCC2=Cc3c(cnn3-c3ccc(F)cc3)C[C@@]21C` [Example 52, methyl N-(2-{2-[(4αS,5R)-1-(4-fluorophenyl)-5-hydroxy-4α-methyl-1,4,4α,5,6,7-hexahydrocyclopenta[f]indazol-5-yl]ethyl}benzoyl)-2-methylalaninate], affinity was put at a Ki of 0.8 nM.
As for `CC(C)(C)CNC(=O)c1c(F)cccc1CC[C@]1(O)CCC2=Cc3c(cnn3-c3ccc(F)cc3)C[C@@]21C` [Example 55, N-(2,2-dimethylpropyl)-2-fluoro-6-{2-[(4αS,5R)-1-(4-fluorophenyl)-5-hydroxy-4α-methyl-1,4,4α,5,6,7-hexahydrocyclopenta[f]indazol-5-yl]ethyl}benzamide], the affinity corresponds to a Ki of 0.92 nM.

The test is the same for the next values; noted with them: Table 2; prior-art comparison compounds.
For the compound `C[C@]12Cc3cnn(-c4ccc(F)cc4)c3C=C1CC[C@@]2(O)CCc1ccccc1Cl` [Example 40 WO 2004/075840 A2, reference compound], the Ki was found to be 20.7 nM.
In turn, `C[C@]12Cc3cnn(-c4ccc(F)cc4)c3C=C1CCC[C@@]2(O)CCc1ccccc1Cl` [Example 41 WO 2004/075840 A2, reference compound] yielded a Ki of 0.32 nM.
Compound `C[C@]12Cc3cnn(-c4ccc(F)cc4)c3C=C1CC[C@@]2(O)CCc1ccc(F)cc1` [Example 46 WO 2004/075840 A2, reference compound] returned an inhibition constant (Ki) of 1 nM.

The Ki is the dissociation constant of the complex between target and ligand, obtained from inhibition or displacement. Low values mean higher affinity, high ones lower affinity.
